Data reported in ChEMBL document CHEMBL2177005, “Mineralocorticoid receptor antagonists for the treatment of hypertension and diabetic nephropathy” (J Med Chem, 2012).

Legend:
[1] = target: T1, Progesterone receptor (Homo sapiens, UniProt P06401); assay: Antagonist activity at progesterone receptor; assay type: functional
T1 sequence (P06401 whole entry): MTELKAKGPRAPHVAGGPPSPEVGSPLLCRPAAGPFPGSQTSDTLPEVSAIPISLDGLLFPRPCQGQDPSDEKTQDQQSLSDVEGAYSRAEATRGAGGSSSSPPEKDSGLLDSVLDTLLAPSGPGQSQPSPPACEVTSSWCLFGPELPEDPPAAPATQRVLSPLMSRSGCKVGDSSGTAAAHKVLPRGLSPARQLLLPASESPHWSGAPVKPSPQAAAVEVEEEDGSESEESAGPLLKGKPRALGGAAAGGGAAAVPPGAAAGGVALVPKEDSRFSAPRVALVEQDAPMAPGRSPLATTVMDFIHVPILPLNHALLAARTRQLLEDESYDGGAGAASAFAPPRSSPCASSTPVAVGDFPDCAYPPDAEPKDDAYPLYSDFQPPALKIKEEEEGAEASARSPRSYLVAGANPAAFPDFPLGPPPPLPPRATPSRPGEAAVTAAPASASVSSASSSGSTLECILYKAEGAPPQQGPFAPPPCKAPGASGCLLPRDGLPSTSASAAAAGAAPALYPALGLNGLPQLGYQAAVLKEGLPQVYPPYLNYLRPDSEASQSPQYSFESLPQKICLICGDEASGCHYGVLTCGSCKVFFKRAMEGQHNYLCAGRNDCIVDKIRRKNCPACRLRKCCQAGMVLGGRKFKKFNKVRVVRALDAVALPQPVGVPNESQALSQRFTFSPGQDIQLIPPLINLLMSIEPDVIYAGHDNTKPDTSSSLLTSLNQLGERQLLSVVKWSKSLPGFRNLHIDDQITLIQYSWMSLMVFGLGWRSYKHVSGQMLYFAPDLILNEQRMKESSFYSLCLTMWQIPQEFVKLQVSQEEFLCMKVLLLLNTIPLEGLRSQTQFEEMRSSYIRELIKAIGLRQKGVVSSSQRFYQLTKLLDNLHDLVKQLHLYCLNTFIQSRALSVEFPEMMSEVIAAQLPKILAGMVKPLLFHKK

[2] = target: T2, Androgen receptor (Homo sapiens, UniProt P10275); assay: Displacement of [3H]-methyltrienolone from human androgen receptor overexpressed in HEK293 cells by microbeta counting assay; assay type: cell-based
T2 sequence (P10275 whole entry): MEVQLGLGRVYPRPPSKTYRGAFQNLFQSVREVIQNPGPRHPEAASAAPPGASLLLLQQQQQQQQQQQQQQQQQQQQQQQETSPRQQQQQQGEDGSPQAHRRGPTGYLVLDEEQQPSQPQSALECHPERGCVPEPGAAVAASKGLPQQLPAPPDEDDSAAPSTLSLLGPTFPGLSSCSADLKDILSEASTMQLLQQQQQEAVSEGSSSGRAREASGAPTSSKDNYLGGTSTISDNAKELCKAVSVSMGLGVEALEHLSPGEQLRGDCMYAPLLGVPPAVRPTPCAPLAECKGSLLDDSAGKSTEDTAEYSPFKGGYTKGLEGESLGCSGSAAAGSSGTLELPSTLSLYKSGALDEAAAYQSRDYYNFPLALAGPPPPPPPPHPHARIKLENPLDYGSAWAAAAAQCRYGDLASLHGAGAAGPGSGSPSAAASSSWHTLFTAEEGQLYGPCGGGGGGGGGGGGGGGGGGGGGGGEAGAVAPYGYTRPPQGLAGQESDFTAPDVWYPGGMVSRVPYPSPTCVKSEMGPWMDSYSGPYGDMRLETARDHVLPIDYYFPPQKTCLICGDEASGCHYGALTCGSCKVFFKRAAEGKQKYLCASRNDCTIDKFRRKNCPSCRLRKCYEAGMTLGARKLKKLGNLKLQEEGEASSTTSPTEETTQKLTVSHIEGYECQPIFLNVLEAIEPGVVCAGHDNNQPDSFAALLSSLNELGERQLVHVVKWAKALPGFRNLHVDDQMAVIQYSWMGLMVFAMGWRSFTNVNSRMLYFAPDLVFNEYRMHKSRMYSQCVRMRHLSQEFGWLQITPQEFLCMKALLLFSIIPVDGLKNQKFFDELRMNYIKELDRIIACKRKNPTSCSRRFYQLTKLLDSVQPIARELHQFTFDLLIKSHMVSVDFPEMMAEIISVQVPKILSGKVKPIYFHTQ

[3] = target: T1, Progesterone receptor; assay: Displacement of [3H]methyltrienolone from human progesterone receptor overexpressed in HEK293 cells by microbeta counting assay; assay type: cell-based
[4] = target: T3, Glucocorticoid receptor (Homo sapiens, UniProt P04150); assay: Displacement of [3H]dexamethasone from human glucocorticoid receptor overexpressed in HEK293 cells by microbeta counting assay; assay type: cell-based
T3 sequence (P04150 whole entry): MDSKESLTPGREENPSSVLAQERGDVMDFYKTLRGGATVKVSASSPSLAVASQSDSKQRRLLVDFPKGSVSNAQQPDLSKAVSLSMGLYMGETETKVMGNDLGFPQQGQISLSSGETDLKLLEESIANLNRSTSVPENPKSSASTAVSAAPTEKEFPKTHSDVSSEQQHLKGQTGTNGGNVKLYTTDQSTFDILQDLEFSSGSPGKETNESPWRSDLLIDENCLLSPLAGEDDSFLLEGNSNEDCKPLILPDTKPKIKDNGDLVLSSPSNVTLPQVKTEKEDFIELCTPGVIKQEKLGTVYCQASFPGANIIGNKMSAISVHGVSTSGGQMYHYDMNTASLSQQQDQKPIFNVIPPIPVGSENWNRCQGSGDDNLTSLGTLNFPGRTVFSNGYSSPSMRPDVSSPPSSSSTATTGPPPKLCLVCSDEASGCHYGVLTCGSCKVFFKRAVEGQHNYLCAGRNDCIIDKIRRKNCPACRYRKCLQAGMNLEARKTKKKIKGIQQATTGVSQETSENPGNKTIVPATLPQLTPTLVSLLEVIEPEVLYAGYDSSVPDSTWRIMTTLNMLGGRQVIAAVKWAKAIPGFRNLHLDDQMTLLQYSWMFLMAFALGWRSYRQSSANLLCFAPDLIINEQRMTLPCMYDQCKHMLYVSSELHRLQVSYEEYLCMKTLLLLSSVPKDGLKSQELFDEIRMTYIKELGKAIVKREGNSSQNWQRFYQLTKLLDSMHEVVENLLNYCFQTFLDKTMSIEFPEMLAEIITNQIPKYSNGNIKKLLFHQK

[5] = target: T4, Mineralocorticoid receptor (Homo sapiens, UniProt P08235); assay: Displacement of [3H]aldosterone from human mineralocorticoid receptor overexpressed in HEK293 cells by microbeta counting assay; assay type: cell-based
T4 sequence (P08235 whole entry): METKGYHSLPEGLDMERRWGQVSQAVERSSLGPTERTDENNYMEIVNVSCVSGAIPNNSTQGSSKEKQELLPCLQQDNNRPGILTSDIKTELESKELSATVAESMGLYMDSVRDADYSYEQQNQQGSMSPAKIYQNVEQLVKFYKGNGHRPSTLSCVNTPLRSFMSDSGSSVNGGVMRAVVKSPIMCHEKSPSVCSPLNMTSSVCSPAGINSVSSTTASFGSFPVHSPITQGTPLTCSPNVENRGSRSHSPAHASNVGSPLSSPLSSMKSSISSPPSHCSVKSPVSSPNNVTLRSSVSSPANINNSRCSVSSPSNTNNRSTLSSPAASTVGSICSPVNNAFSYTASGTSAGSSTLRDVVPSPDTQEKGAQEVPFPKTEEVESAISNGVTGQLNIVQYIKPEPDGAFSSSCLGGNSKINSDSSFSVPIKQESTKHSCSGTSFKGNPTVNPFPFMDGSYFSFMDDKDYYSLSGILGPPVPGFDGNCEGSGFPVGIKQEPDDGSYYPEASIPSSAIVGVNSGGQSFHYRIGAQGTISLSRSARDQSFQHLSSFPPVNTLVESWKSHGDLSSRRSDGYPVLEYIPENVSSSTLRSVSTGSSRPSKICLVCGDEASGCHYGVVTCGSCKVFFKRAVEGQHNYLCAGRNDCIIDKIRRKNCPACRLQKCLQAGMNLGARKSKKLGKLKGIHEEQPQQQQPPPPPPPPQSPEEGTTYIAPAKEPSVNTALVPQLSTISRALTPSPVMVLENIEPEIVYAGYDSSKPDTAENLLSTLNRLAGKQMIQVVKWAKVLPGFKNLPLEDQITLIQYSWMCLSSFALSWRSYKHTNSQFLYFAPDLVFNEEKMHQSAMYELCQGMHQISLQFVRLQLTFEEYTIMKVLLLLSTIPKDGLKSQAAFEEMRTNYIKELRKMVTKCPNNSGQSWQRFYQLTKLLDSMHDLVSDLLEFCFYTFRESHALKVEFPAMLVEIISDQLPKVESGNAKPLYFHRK

[6] = target: T1, Progesterone receptor; assay: Antagonist activity against progesterone receptor expressed in CHOK1 cells after 10 to 30 mins by luciferase reporter gene assay; assay type: functional, cell-based, CHO-K1
[7] = target: T2, Androgen receptor; assay: Antagonist activity against androgen receptor expressed in CHOK1 cells after 10 to 30 mins by luciferase reporter gene assay; assay type: functional, cell-based, CHO-K1
[8] = target: T4, Mineralocorticoid receptor; assay: Antagonist activity against human mineralocorticoid receptor expressed in CHOK1 cells after 10 to 30 mins by luciferase reporter gene assay; assay type: functional, cell-based, CHO-K1
[9] = target: T3, Glucocorticoid receptor; assay: Antagonist activity against glucocorticoid receptor expressed in CHOK1 cells after 10 to 30 mins by luciferase reporter gene assay; assay type: functional, cell-based, CHO-K1
[10] = target: T4, Mineralocorticoid receptor; assay: Antagonist activity at mineralocorticoid receptor expressed in african green monkey COS7 cells after 18 hrs by luciferase reporter gene assay; assay type: functional, cell-based, COS-7
[11] = target: T5, Mineralocorticoid receptor (Rattus norvegicus, UniProt P22199); assay: Displacement of [3H]-aldosterone from rat mineralocorticoid receptor after 18 hrs by liquid scintillation counter analysis
T5 sequence (P22199 whole entry): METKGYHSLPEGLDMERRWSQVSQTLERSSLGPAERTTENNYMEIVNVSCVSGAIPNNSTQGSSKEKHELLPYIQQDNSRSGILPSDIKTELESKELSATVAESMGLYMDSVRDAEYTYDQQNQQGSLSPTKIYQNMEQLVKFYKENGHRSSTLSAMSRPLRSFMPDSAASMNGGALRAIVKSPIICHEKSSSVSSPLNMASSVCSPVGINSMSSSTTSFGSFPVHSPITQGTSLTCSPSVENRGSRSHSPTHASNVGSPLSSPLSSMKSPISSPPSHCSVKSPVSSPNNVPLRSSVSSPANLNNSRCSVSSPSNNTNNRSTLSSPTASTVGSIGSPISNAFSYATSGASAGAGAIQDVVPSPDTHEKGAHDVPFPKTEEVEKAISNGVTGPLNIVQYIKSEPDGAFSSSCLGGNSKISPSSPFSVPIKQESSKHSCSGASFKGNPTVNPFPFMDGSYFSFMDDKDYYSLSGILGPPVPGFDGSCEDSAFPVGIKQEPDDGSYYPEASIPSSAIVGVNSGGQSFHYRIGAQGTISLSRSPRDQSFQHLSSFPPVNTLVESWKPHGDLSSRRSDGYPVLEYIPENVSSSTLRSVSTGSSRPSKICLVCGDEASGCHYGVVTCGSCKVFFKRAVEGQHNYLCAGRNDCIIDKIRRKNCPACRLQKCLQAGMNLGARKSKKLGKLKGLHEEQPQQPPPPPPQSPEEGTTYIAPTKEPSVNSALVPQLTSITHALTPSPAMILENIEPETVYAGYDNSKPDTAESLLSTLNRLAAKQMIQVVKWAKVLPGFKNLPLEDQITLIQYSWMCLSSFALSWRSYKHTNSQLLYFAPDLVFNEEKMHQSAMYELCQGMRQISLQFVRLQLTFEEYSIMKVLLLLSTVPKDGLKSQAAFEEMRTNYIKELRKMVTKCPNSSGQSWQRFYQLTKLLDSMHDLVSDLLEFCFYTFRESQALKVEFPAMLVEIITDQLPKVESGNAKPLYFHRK

[12] = target: T5, Mineralocorticoid receptor; assay: Displacement of [3H]Aldosterone C from rat mineralocorticoid receptor by liquid scintillation counter analysis
[13] = target: T4, Mineralocorticoid receptor; assay: Antagonist activity at mineralocorticoid receptor; assay type: functional
[14] = Protein binding in plasma; assay type: ADME, cell-free; conditions: read-out: PPB (converted)
[15] = Binding affinity to Ca2+ channel L type by radioligand binding assay
[16] = target: T5, Mineralocorticoid receptor; assay: Binding affinity to rat mineralocorticoid receptor

## O=C1COc2ccc(C3=Nn4cnnc4SC3c3ccccc3)cc2N1 (configuration not stated)
[1]
  IC50: > 10000 nM

## O=c1[nH]c2cc(/C=C3\c4ccccc4COc4cc(F)ccc43)ccc2n1[C@H]1C[C@H]2COCCN2C1
[2]
  Ki: 1170 nM
[3]
  Ki: 478 nM
[4]
  Ki: 669 nM
[5]
  Ki: 0.4 nM

## CCOC(=O)C1=C(C)NC(C)=C(C(C)=O)[C@H]1c1cccc2c(=O)cc(C)oc12
[6]
  IC50: 9020 nM
[7]
  IC50: 4440 nM
[8]
  IC50: 28 nM
[9]
  IC50: 5470 nM

## CC1(C)OC(=S)Nc2ccc(NS(=O)(=O)c3cccs3)cc21
[10]
  IC50: 130 nM
[11]
  IC50: 21 nM

## COc1cc(C(=O)Nc2ccc(-c3ccccc3OC(F)(F)F)c(CCN(C)C3CC3)c2)ccc1S(N)(=O)=O
[12]
  IC50: 22 nM

## Cc1c(C(=O)Nc2ccc(S(C)(=O)=O)cc2)cn(CCO)c1-c1ccccc1C(F)(F)F
[13]
  IC50: 2.4 nM

## COC(=O)[C@@H]1CC2=CC(=O)CC[C@]2(C)[C@@]23O[C@@H]2C[C@@]2(C)[C@@H](CC[C@@]24CCC(=O)O4)[C@H]13 [EPLERENONE]
[14]
  fraction unbound: 0.1

## CCOc1ncc(C)c2c1[C@H](c1ccc(C#N)cc1OC)C(C(N)=O)=C(C)N2 [FINERENONE]
[15]
  IC50: > 1000 nM

## CC1(C)Oc2cc(NS(C)(=O)=O)ccc2N(c2ccc(F)cc2)C1=O [MT-3995]
[16]
  IC50: < 500 nM

## CC(=O)S[C@@H]1CC2=CC(=O)CC[C@]2(C)[C@H]2CC[C@@]3(C)[C@@H](CC[C@@]34CCC(=O)O4)[C@H]12 [SPIRONOLACTONE]
[14]
  fraction unbound: 0.51
